Assay results published in patent US20260224538A1 (Purdue Research Foundation, priority 2023, published 2026).

Legend:
α-synuclein (α-syn) = target: T1, α-synuclein (α-syn) (Homo sapiens, UniProt P37840); assay: Thioflavin-T (ThT) fluorescence assay of α-syn fibril formation; type: biochemical
T1 construct: purchased rPeptide
Description: Thioflavin-T (ThT) fluorescence assays. Thioflavin-T (ThT) fluorescence assays were used to monitor fibril formation of recombinant Ap (fragments 1-40 and 1-42), recombinant α-syn, recombinant tau isoform 2N4R, synthetic IAPP, and synthetic TTR peptides treated with BTA and its derivatives. The IAPP ThT assay was performed in 10 mM PBS (pH 7.4) at a final concentration of 10 μM for both IAPP and ThT as published previously. Aβ fragments 1-40 and 1-42 were tested at 7 μM in 10 mM of PBS using ThT at a final concentration of 20 μM. Kinetics of α-syn fibrillization were performed as published previously.^36-37 TTR fragment kinetics of fibril formation were assessed at 10 μM in 100 mM sodium acetate buffer supplemented with 100 mM KCl and 1 mM ethylenediaminetetraacetic acid (EDTA) (pH 4) with 20 μM ThT. The fluorescence emission experiments were performed with the excitation and emission wavelengths set at 440 and 485 nm, respectively, with a Synergy HT multi-mode microplate reader (BioTek, Winooski, VT). Samples were measured in three replicates, and the experiments were repeated three times using at least two different stock solutions. For each time point, arbitrary units of fluorescence were calculated from the mean values normalized against the maximum value in each completed assay. The lag time for each condition was calculated as previously described. All results contained in histograms were presented as mean±SEM. Data were analyzed by the one-way analysis of variance with Dunnett's multiple comparisons between controls and compounds. Differences were considered statistically significant at p<0.05.
(§1) Compounds with the highest anti-fibrillary activity were tested at 3.125, 6.25, 12.5, 25, 50, and 100 μM to obtain dose-response curves with prepared α-syn and 2N4R tau at 6.25 μM and 6 μM, respectively. Compounds were tested with α-syn using a previously published procedure. Concerning the tau (isoform 2N4R) kinetics of fibril formation, measurements of ThT fluorescence were performed with a solution of the protein diluted to a final concentration of 6 μM in PBS (pH 7.4) supplemented with 1.5 μM heparin, 20 μM ThT, 2.5 mM DTT, and 100 μM compound. Aliquots of the diluted protein solution (100 μL each) were pipetted into the wells of a 96-well plate, and a Teflon ball was added to each well. The plate was incubated at 37° C. with constant shaking at 1,000 rpm in a Tecan Spark plate reader. ThT fluorescence was measured every 15 minutes with excitation and emission wavelengths of 440 nm and 480 nm, and the data were plotted using GraphPad Prism.

tau isoform 2N4R = target: T2, tau isoform 2N4R (Homo sapiens, UniProt P10636); assay: ThT kinetics of tau isoform 2N4R fibril formation; type: biochemical
T2 construct: made in house; host or cells: E. coli BL21(DE3)
T2 sequence (P10636 1-441 isoform P10636-8): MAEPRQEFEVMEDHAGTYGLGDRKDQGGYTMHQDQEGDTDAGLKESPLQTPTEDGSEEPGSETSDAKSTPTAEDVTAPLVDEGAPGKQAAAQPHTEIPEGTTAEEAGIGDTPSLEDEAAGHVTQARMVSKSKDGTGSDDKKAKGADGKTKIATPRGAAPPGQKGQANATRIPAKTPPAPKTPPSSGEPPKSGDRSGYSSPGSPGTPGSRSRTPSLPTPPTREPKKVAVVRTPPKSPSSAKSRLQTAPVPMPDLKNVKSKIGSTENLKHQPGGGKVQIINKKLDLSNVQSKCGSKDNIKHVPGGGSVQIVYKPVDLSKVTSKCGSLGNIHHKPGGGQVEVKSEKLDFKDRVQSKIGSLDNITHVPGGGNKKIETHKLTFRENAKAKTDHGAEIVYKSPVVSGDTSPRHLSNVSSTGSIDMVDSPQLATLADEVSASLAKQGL
Description: The bacterial expression plasmid consisting of the vector pRK172 carrying a cDNA encoding the human Tau 2N4R isoform was obtained from Dr. David Eliezer (Weill Cornell Medicine, New York, NJ). For protein expression, E. coli BL21(DE3) cells were transformed with the plasmid and grown in LB media supplemented with ampicillin (100 μg/mL). Protein over-expression was induced by the addition of 1 mM IPTG for 4 hours at 37° C., and cells were pelleted by centrifugation at 6,000 g for 15 minutes at 4° C. The cells were resuspended in lysis buffer (20 mM MES, 400 mM NaCl, 0.2 mM MgCl2, 1 mM EGTA, protease inhibitor cocktail (P8340, Sigma Aldrich), 0.25 mg/mL lysozyme, and 1 μg/mL DNase 1, pH 6.8) and lysed by a French press cell disruptor at 4° C., after which the lysate was boiled for 20 minutes. Denatured proteins were pelleted by centrifugation at 30,000 g for 30 minutes at 4° C., and the supernatant was dialyzed overnight against cation exchange buffer (20 mM MES, 50 mM NaCl, 1 mM MgCl2, 1 mM EGTA, 2 mM DTT, 0.1 mM PMSF, pH 6.8). The dialysate was loaded onto a HiPrep SP HP column, and proteins were eluted with a linear gradient ranging from 50 mM to 1 M NaCl. Fractions containing tau isoform 2N4R were pooled, and the resulting protein solution was dialyzed against PBS (pH 7.4) and stored at −80° C.
as §1

[1] = system: M17D neuroblastoma cells that express inclusion-prone αS-3K::YFP; assay: α-Syn inclusion-forming neuroblastoma cell experiment; type: cell-based; conditions: t=96 hrs
Description: α-Syn (or αS) inclusion-forming neuroblastoma cell experiment. Dox-inducible neuroblastoma cells M17D-TR/αS-3K::YFP have been used previously. 96-well plates were used with a cellular density of 30,000 cells per well. Compounds were added […], and αS-3K::YFP transgene expression was induced […]. Induction was done by adding 1 μg per mL (final concentration) dox to culture media. Cells were incubated in the Incucyte Zoom 2000 platform (Essen Biosciences), and images (green, bright field) were taken continuously. Endpoint analysis of inclusion formation or growth was performed 48 hours after induction (96 hours after plating). The Incucyte processing definition ‘Inclusions’ was created as follows: Parameters, Fixed Threshold, Threshold (GCU) 50; Edge Split On, Edge Sensitivity 100; Cleanup, Hole Fill (μm^2): 10, Adjust Size (pixels): 0; Filters, Area (μm^2): max 50, Mean Intensity: min 60, Integrated Intensity: min 2000. Cell confluence was measured by the processing definition ‘Cells’: Parameters, Segmentation Adjustment 0.7; Cleanup, all parameters set to 0; Filters, Area (μm^2): min 345.00. As described previously for the evaluation of protein expression by SDS-PAGE and Western Blotting in the LiCor system, αS-specific monoclonal antibody 4B12 (Thermofisher, Waltham, MA; 1:1000) and a polyclonal antibody to GAPDH (Sigma-Aldrich, St. Louis, MO, G9545; 1:5000) were used.

- α-syn fibrillization (ThT), dose response (α-synuclein (α-syn); 3.125-100 μM, plateau phase): protein fibrillization was reduced
- remaining activity at 100 µM (α-synuclein (α-syn); compounds at 100 μM, α-syn 6.25 μM, control 0.25% DMSO, read-out: ThT a-Syn (%), maximum thioflavin T (ThT) intensity in percentage): 36.2 ± 3.1%
- tau isoform 2N4R fibrillization (ThT), dose response (tau isoform 2N4R; 3.125-100 μM, at 15 hours): protein fibrillization was reduced
- lag time of tau isoform 2N4R fibril formation (tau isoform 2N4R; tau 6 μM, compound 100 μM): delayed the lag time
Structure (SMILES): Nc1nsc2ccc([N+](=O)[O-])cc12 [A, 5-nitro-1,2-benzothiazol-3-amine]
- thioflavin T fluorescence intensity, α-syn (α-synuclein (α-syn); screen on prone-to-aggregate proteins (FIG. 2A, FIG. 4A)): significantly more effective at preventing the aggregation
- production of tau isoform 2N4R fibrils (ThT kinetic aggregation curves) (tau isoform 2N4R; tau 6 μM, compound 100 μM): demonstrating the best anti-fibrillary activity
- cell confluence ([1]; different concentrations): without any effect on the cell confluence
- number of αS-3K::YFP inclusions ([1]; different concentrations, vs 0.1% DMSO): reduced the number of inclusions in a dose-dependent manner
- concentration from which the number of inclusions was reduced [1]: 10 µM
